{
  "source": "paper PMC9315372",
  "about": "“Impact of Sub-MIC Eugenol on Klebsiella pneumoniae Biofilm Formation via Upregulation of rcsB” (Frontiers in Veterinary Science, 2022)",
  "molecular_target": "T1, RcsB (Klebsiella pneumoniae, UniProt W1DMM9)",
  "T1 construct": "expressed and purified earlier in the laboratory",
  "T1 sequence (W1DMM9 entry or part of it)": "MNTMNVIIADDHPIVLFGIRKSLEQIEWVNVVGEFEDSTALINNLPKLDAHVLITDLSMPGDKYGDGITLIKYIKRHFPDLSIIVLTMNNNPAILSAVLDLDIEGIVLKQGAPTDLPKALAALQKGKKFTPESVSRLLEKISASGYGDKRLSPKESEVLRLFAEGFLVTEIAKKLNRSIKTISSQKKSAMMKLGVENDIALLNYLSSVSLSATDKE",
  "experiment": "microscale thermophoresis (Monolith NT.[…])",
  "assay_type": "binding",
  "data": [
    {"compound": "C=CCc1ccc(O)c(OC)c1", "note": "[eugenol]", "values": [
      {"measurement": "Kd", "result": 53.4, "unit": "µM"}
    ]}
  ]
}
